Read-outs that look alike come from different tables or passages of the source.
Tests used:
human PRMT1 = biological target: T1, human PRMT1 (Homo sapiens, UniProt Q99873); test: PRMT1 Biochemical Assay; conditions: peptide substrate, 3H-SAM Flashplate assay; read-out: PRMT1 IC50
T1 construct: GST-tagged PRMT1; made in house; host or cells: High Five insect cells (baculovirus, pFastBac1)
From the text: (§1) S-adenosylmethionine (SAM), S-adenosylhomocysteine (SAH), bicine, Tween20, dimethylsulfoxide (DMSO), bovine skin gelatin (BSG), and Tris(2-carboxyethyl)phosphine hydrochloride solution (TCEP) were purchased from Sigma-Aldrich at the highest level of purity possible. ^3H-SAM was purchase from American Radiolabeled Chemicals with a specific activity of 80 Ci/mmol. 384-well streptavidin Flashplates were purchased from PerkinElmer.
Recombinant baculovirus were generated according to Bac-to-Bac kit instructions (Life Technologies). […] Infections were carried out at 27° C. for 48 hours, harvested by centrifugation, and stored at −80° C. for purification.
GST-tagged PRMT1 was eluted with 50 mM Tris, 2 mM glutathione, pH 7.8, dialysed in buffer A and concentrated to 1 mg/mL.
General Procedure for PRMT1 Enzyme Assays on Peptide Substrates.
(§2) The assays were all performed in a buffer consisting of 20 mM Bicine (pH=7.6), 1 mM TCEP, 0.005% BSG, and 0.002% Tween 20, prepared on the day of use. […] DMSO (1 ul) was added to Columns 11, 12, 23, 24, rows A-H for the maximum signal control and 1 ul of SAH, a known product and inhibitor of PRMT1, was added to columns 11, 12, 23, 24, rows I-P for the minimum signal control. A cocktail (40 ul) containing the PRMT1 enzyme was added by Multidrop Combi (Thermo-Fisher). The compounds were allowed to incubate with PRMT1 for 30 min at room temperature, then a cocktail (10 ul) containing SAM and peptide was added to initiate the reaction (final volume=51 ul). […] The assays were stopped by the addition of non-radiolabeled SAM (10 ul) to a final concentration of 300 uM, which dilutes the ^3H-SAM to a level where its incorporation into the peptide substrate is no longer detectable. 50 ul of the reaction in the 384-well polypropylene plate was then transferred to a 384-well Flashplate and the biotinylated peptides were allowed to bind to the streptavidin surface for at least 1 hour before being washed once with 0.1% Tween20 in a Biotek ELx405 plate washer. The plates were then read in a PerkinElmer TopCount plate reader to measure the quantity of ^3H-labeled peptide bound to the Flashplate surface, measured as disintegrations per minute (dpm) or alternatively, referred to as counts per minute (cpm).
(§3) Where dpm=disintegrations per minute, cmpd=signal in assay well, and min and max are the respective minimum and maximum signal controls.
(§4) Where top and bottom are the normally allowed to float, but may be fixed at 100 or 0 respectively in a 3-parameter fit. The Hill Coefficient normally allowed to float but may also be fixed at 1 in a 3-parameter fit. Y is the % inhibition and X is the compound concentration.

human PRMT6 = biological target: T2, human PRMT6 (Homo sapiens, UniProt Q96LA8); test: PRMT6 Biochemical Assay
T2 construct: Flag-PRMT6-His; made in house; host or cells: HEK 293F cells (BacMam baculovirus, pFastBacMam)
T2 sequence (Q96LA8 with tags, fused parts or gaps): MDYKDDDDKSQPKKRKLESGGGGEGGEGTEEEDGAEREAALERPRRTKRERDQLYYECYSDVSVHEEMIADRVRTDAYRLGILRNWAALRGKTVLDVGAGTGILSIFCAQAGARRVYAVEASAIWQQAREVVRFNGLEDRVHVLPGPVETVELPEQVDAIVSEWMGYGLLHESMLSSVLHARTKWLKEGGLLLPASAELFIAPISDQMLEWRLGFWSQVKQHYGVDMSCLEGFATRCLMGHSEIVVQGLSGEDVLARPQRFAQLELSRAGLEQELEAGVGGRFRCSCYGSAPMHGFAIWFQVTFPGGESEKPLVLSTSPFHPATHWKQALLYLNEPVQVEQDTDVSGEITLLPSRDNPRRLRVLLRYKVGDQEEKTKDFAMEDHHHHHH
From the text: as §1, with “(BSG), sodium butyrate” for “(BSG),”
Peptide representative of human histone H4 residues 36-50 was synthesized with an N-terminal linker-affinity tag motif and a C-terminal amide cap by 21st Century Biochemicals.
The amplified gene was subcloned into pFastBacMam (Viva Biotech).
Recombinant baculovirus were generated according to Bac-to-Bac kit instructions (Life Technologies). […] Infections were carried out at 37° C. for 48 hours, harvested by centrifugation, and stored at −80° C. for purification.
Column was washed with 20 mM imidazole in the same buffer and Flag-PRMT6-His was eluted with 150 mM imidazole. Pooled fractions were dialysed against buffer Ni-A and further purified by anti-flag M2 affinity chromatography. Flag-PRMT6-His was eluted with 200 ug/ml FLAG peptide in the same buffer. Pooled fractions were dialysed in 20 mM Tris, 150 mM NaCl, 10% glycerol and 5 mM β-mercaptoethanol, pH 7.8.
General Procedure for PRMT6 Enzyme Assays on Peptide Substrates.
as §2, with “PRMT6,” for “PRMT1,”, “PRMT6” for “PRMT1”, “400” for “300”
as §3, §4

[1] = tested on: mono-methyl arginine in RKO cells; test: RKO Methylation Assay, In Cell Western (ICW); assay type: cell-based; conditions: 72 hours
From the text: RKO adherent cells were purchased from ATCC (American Type Culture Collection), Manassas, Va., USA. DMEM/Glutamax medium, penicillin-streptomycin, heat inactivated fetal bovine serum, 0.05% trypsin and D-PBS were purchased from Life Technologies, Grand Island, N.Y., USA. Odyssey blocking buffer, 800CW goat anti-rabbit IgG (H+L) antibody, and Licor Odyssey infrared scanner were purchased from Licor Biosciences, Lincoln, Nebr., USA. Mono-methyl arginine antibody was purchased from Cell Signaling Technology, Danvers, Mass., USA. Methanol was purchased from VWR, Franklin, Mass., USA. 10% Tween 20 was purchased from KPL, Inc., Gaithersburg, Md., USA. DRAQ5 was purchased from Biostatus Limited, Leicestershire, UK.
RKO adherent cells were maintained in growth medium (DMEM/Glutamax medium supplemented with 10% v/v heat inactivated fetal bovine serum and 100 units/mL penicillin-streptomycin) and cultured at 37° C. under 5% CO2.
Cell treatment, In Cell Western (ICW) for detection of mono-methyl arginine and DNA content.
Compound (100 nL) from a 96-well source plate was added directly to 384 well cell plate. Plates were incubated at 37° C., 5% CO2 for 72 hours. After three days of incubation, plates were brought to room temperature outside of the incubator for ten minutes and blotted on paper towels to remove cell media. 50 μL of ice cold 100% methanol was added directly to each well and incubated for 30 min at room temperature. After 30 min, plates were transferred to a Biotek EL406 plate washer and washed 2 times with 100 μL per well of wash buffer (1×PBS). Next 60 μL per well of Odyssey blocking buffer (Odyssey Buffer with 0.1% Tween 20 (v/v)) were added to each plate and incubated 1 hour at room temperature. Blocking buffer was removed and 20 μL per well of primary antibody was added (mono-methyl arginine diluted 1:200 in Odyssey buffer with 0.1% Tween 20 (v/v)) and plates were incubated overnight (16 hours) at 4° C. Plates were washed 5 times with 100 μL per well of wash buffer. […] The plates were washed 5 times with 100 μL per well wash buffer then 2 times with 100 μL per well of water. Plates were allowed to dry at room temperature then imaged on the Licor Odyssey machine which measures integrated intensity at 700 nm and 800 nm wavelengths. Both 700 and 800 channels were scanned.
First, the ratio for each well was determined by:
Each plate included fourteen control wells of DMSO only treatment (minimum activation) as well as fourteen control wells for maximum activation treated with 20 μM of a reference compound. The average of the ratio values for each control type was calculated and used to determine the percent activation for each test well in the plate. Reference compound was serially diluted three-fold in DMSO for a total of nine test concentrations, beginning at 20 μM. Percent activation was determined and EC30 curves were generated using triplicate wells per concentration of compound.

human PRMT8 = human PRMT8 (Homo sapiens, UniProt Q9NR22); test: PRMT8 Biochemical Assay; conditions: PRMT8 IC50 (uM), peptide substrate, 3H-SAM Flashplate assay
Sequence of human PRMT8 (Q9NR22 whole entry): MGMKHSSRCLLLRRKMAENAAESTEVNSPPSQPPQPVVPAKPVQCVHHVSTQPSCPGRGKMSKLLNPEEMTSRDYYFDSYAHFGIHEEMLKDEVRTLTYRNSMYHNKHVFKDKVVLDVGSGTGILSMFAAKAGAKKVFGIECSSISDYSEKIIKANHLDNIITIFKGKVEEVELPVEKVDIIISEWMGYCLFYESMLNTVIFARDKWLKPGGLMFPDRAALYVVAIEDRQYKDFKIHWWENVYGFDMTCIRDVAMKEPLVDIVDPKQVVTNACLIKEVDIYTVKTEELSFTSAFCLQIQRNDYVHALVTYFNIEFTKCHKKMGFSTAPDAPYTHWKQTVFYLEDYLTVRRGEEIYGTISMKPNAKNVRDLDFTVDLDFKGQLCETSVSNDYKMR
From the text: S-adenosylmethionine (SAM), S-adenosylhomocysteine (SAH), bicine, Tween20, dimethylsulfoxide (DMSO), bovine skin gelatin (BSG), isopropyl-3-D-thiogalactopyranoside (IPTG), and Tris(2-carboxyethyl)phosphine hydrochloride solution (TCEP) were purchased from Sigma-Aldrich at the highest level of purity possible. ^3H-SAM was purchase from American Radiolabeled Chemicals with a specific activity of 80 Ci/mmol. 384-well streptavidin Flashplates were purchased from PerkinElmer.
E. coli (BL21(DE3) Gold, Stratagene) made competent by the CaCl2 method were transformed with the PRMT8 construct and ampicillin selection. Protein over-expression was accomplished by growing the PRMT8 expressing E. coli clone and inducing expression with 0.3 mM IPTG at 16° C. The culture was grown for 12 hours, harvested by centrifugation, and stored at −80° C. for purification.
GST-tagged PRMT8 was eluted with 50 mM Tris, 2 mM glutathione, pH 7.8. Pooled fractions were cleaved by thrombin (10U) and dialysed in buffer A. GST was removed by reloading the cleaved protein sample onto glutathione sepharose column and PRMT8 was collected in the flow-through fractions. PRMT8 was purified further by ceramic hydroxyapatite chromatography. The column was washed with 50 mM phosphate buffer, 100 mM NaCl, 5% glycerol, 5 mM β-mercaptoethanol, pH 7.8 and PRMT8 was eluted by 100 mM phosphate in the same buffer. Protein was concentrated and buffer was exchanged to 50 mM Tris, 300 mM NaCl, 10% glycerol, 5 mM β-mercaptoethanol, pH 7.8 by ultrafiltration.
General Procedure for PRMT8 Enzyme Assays on Peptide Substrates.
The assays were all performed in a buffer consisting of 20 mM Bicine (pH=7.6), 1 mM TCEP, 0.005% BSG, and 0.002% Tween 20, prepared on the day of use. […] DMSO (1 ul) was added to Columns 11, 12, 23, 24, rows A-H for the maximum signal control and 1 ul of SAH, a known product and inhibitor of PRMT8, was added to columns 11, 12, 23, 24, rows I-P for the minimum signal control. A cocktail (40 ul) containing the PRMT8 enzyme was added by Multidrop Combi (Thermo-Fisher). The compounds were allowed to incubate with PRMT8 for 30 min at room temperature, then a cocktail (10 ul) containing ^3H-SAM and peptide was added to initiate the reaction (final volume=51 ul). […] The assays were stopped by the addition of non-radiolabeled SAM (10 ul) to a final concentration of 400 uM, which dilutes the ^3H-SAM to a level where its incorporation into the peptide substrate is no longer detectable. 50 ul of the reaction in the 384-well polypropylene plate was then transferred to a 384-well Flashplate and the biotinylated peptides were allowed to bind to the streptavidin surface for at least 1 hour before being washed once with 0.1% Tween20 in a Biotek ELx405 plate washer. The plates were then read in a PerkinElmer TopCount plate reader to measure the quantity of ^3H-labeled peptide bound to the Flashplate surface, measured as disintegrations per minute (dpm) or alternatively, referred to as counts per minute (cpm).

[2] = peptide substrate, 3H-SAM Flashplate assay, read-out: PRMT6 IC50

T1 sequence (Q99873 with tags, fused parts or gaps): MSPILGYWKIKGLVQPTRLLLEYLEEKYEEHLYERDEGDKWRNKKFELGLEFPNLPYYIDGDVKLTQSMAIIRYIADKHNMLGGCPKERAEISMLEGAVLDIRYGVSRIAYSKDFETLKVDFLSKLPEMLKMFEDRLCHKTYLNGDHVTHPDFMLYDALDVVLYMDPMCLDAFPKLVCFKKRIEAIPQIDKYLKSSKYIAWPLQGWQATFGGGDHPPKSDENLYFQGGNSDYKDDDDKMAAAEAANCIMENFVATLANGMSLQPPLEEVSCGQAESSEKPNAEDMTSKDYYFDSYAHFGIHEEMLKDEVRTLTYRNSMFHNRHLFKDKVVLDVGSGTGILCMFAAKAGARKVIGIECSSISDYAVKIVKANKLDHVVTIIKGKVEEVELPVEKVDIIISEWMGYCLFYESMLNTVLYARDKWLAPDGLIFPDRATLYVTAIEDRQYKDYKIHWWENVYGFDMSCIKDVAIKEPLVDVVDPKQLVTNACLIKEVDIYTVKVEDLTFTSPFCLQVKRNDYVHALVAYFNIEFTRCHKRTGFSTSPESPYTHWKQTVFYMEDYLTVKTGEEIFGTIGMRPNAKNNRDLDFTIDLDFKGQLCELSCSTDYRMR

Row | Compound | IC50 (human PRMT1) | IC50 (human PRMT6; [2]) | ICW EC30 [1] | IC50 (human PRMT8) | IC50 (human PRMT6; PRMT6 IC50 (uM))
1 | CNCCN(C)Cc1c[nH]nc1-c1ccc(OCCOc2ccc(OC(C)C)cc2)cc1 [Compound 33] | 7.37 nM | 0.00562 µM | 232 nM | 0.0233 µM | 
2 | CNCCN(C)Cc1c[nH]nc1[C@H]1CC[C@@H](OCCOc2ccc(OCCOC)cc2)CC1 [Compound 34] | 7.37 nM | 0.0267 µM | 80.13 nM | 0.0135 µM | 
3 | CNCCN(C)Cc1c[nH]nc1-c1ccc(OCCOc2ccc(OCCC(O)CO)cc2)cc1 (centres unmarked) [Compound 35] | 7.59 nM | 0.005 µM | 422.7 nM | 0.0219 µM | 
4 | CNCCN(C)Cc1c[nH]nc1-c1ccc(OCCOc2ccc(N3CCOCC3)cc2)cc1 [Compound 36] | 7.64 nM | 0.00635 µM | 127.1 nM | 0.0244 µM | 
5 | CNCCN(C)Cc1c[nH]nc1-c1ccc(CC(C)C)cc1 [Compound 37] | 8.04 nM |  | 82 nM | 0.0136 µM | 0.0169 µM
6 | C=C(C)COc1c(Cl)cc(-c2n[nH]cc2CN(C)CCNC)cc1C(F)(F)F [Compound 39] | 8.31 nM | 0.0295 µM | 439 nM | 0.0122 µM | 
7 | CNCCN(C)Cc1c[nH]nc1-c1ccc(OCCOc2ccc(OCC(C)C)cc2)cc1 [Compound 40] | 8.34 nM | 0.00739 µM | 505.1 nM | 0.0247 µM | 
8 | CNCCN(C)Cc1c[nH]nc1-c1ccc(N(C)CCOc2ccc(OC)cc2)cc1 [Compound 41] | 8.8 nM | 0.00896 µM | 351.4 nM | 0.0334 µM | 
9 | CNCCN(C)Cc1c[nH]nc1-c1ccc(OCCOc2ccc(C)cc2)cc1 [Compound 42] | 8.9 nM | 0.00498 µM | 185 nM | 0.0514 µM | 
10 | CNCCN(C)Cc1c[nH]nc1-c1cc(C)c(OCC2CC2)c(C(F)(F)F)c1 [Compound 43] | 8.97 nM |  | 475 nM | 0.015 µM | 0.0326 µM
11 | CNCCN(C)Cc1ccnn1-c1ccc(COC)cc1 [Compound 44] | 9.25 nM | 0.0565 µM | 130 nM | 0.0235 µM | 
12 | CCN(CCOc1cccc(OC)c1)c1ccc(-c2n[nH]cc2CN(C)CCNC)cc1 [Compound 45] | 9.26 nM | 0.0331 µM | 1140 nM | 0.0367 µM | 
13 | CNCCN(C)Cc1c[nH]nc1-c1ccc(OCCOc2ccc(OCCN3CCOCC3)cc2)cc1 [Compound 46] | 9.49 nM | 0.00456 µM | 251.6 nM | 0.026 µM | 
14 | CC(C)Cc1ccc(-c2n[nH]cc2CN(C)CCN)cc1C(F)(F)F [Compound 48] | 10.4 nM | 0.0427 µM | 3673 nM | 0.0237 µM | 
15 | CNCCN(C)Cc1c[nH]nc1-c1ccc(OCCOc2cccc(N3CCOCC3)c2)cc1 [Compound 49] | 10.5 nM | 0.00705 µM | 746.8 nM | 0.0337 µM | 
16 | CNCCN(C)Cc1c[nH]nc1-c1cc(F)c(OC2CCOCC2)c(C(F)(F)F)c1 [Compound 53] | 11 nM | 0.0189 µM | 479 nM | 0.0328 µM | 
17 | CNCCN(C)Cc1ccnn1C1CCC2(CCOC2)CC1 (centres unmarked) [Compound 54] | 11.2 nM | 0.0329 µM | 680 nM | 0.0535 µM | 
18 | CNCCN(C)Cc1c[nH]nc1-c1cc(Cl)c(OCC(C)C)c(C(F)(F)F)c1 [Compound 56] | 11.5 nM | 0.0435 µM | 765 nM | 0.0168 µM | 
19 | CNCCN(C)Cc1c[nH]nc1-c1ccc(N(C)CCOc2cccc(OC)c2)cc1 [Compound 57] | 11.8 nM | 0.00902 µM | 757.7 nM | 0.042 µM | 
20 | CNCCN(C)Cc1c[nH]nc1-c1ccc(N2CC3CCCC3C2)nc1 (centres unmarked) [Compound 58] | 11.9 nM | 0.00835 µM | 416.5 nM | 0.0254 µM | 

Reference: patent US20190077795A1, “ARGININE […] INHIBITORS AND USES THEREOF” (Epizyme, Inc., priority 2014, published 2019)
